Data: ChEMBL document CHEMBL1201862, “PubChem BioAssay data set” (2004)
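Compound exposure: 48 hours, 5 concentrations, 96-well plates. Here, GI50 denotes the concentration required for 50% inhibition of growth.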 Activity calls are given as the source filed them. Cut-off read from the data, not from the text of the source: active = GI50 up to about 1.1 µM and inactive = higher.

Experiments:
Assay in all cases: NCI-60 cell line screen, 48 h
[1] = system: CCRF-CEM
[2] = system: HCT-15
[3] = system: HOP-62
[4] = system: HT-29
[5] = system: Hs-578T
[6] = system: IGROV-1
[7] = system: MDA-MB-231
[8] = system: MDA-N
[9] = system: NCI-H460
[10] = system: NCI/ADR-RES
[11] = system: OVCAR-4
[12] = system: RXF 393
[13] = system: TK-10
[14] = system: EKVX
[15] = system: HOP-92
[16] = system: OVCAR-3
[17] = system: OVCAR-5
[18] = system: SF-268
[19] = system: SF-539
[20] = system: SN12C

| Structure (SMILES) | GI50 [1] | GI50 [2] | GI50 [3] | GI50 [4] | GI50 [5] | GI50 [6] | GI50 [7] | GI50 [8] | GI50 [9] | GI50 [10] | GI50 [11] | GI50 [12] | GI50 [13] | GI50 [14] | GI50 [15] | GI50 [16] | GI50 [17] | GI50 [18] | GI50 [19] | GI50 [20] |
| --- | --- | --- | --- | --- | --- | --- | --- | --- | --- | --- | --- | --- | --- | --- | --- | --- | --- | --- | --- | --- |
| COc1cc([C@@H]2c3cc4c(cc3[C@@H](NCCNCCO)[C@H]3COC(=O)[C@H]23)OCO4)cc(OC)c1O | 0.0861 µM (active) | 34.6 µM | 1.2 µM (inactive) | 2 µM (inactive) | 2.63 µM (inactive) | 1.3 µM (inactive) | 3.69 µM (inactive) | 3.88 µM (inactive) | 0.0951 µM (active) | > 99.5 µM (inactive) | 14.4 µM (inactive) | 2.02 µM (inactive) | 7.38 µM (inactive) |  |  |  |  |  |  |  |
| CCOC(=O)CCC(C(=O)OCC)n1nnc2ccc(Nc3c(C)[n+]([O-])c4cc(Cl)ccc4[n+]3[O-])cc21 (configuration not stated) | 29.1 µM (inactive) | 22.8 µM | 31.9 µM (inactive) | 27.2 µM (inactive) | 32.4 µM (inactive) | 27.7 µM (inactive) |  |  | 35.3 µM (inactive) | 31.8 µM (inactive) | 18.3 µM (inactive) | 22.4 µM (inactive) | 71.8 µM (inactive) | 27.7 µM (inactive) | 16 µM (inactive) | 17.7 µM (inactive) | 46.5 µM (inactive) | 18.8 µM (inactive) | 19.9 µM (inactive) | 24.5 µM (inactive) |
| C(=C\c1cc(-c2ccc3ccccc3n2)nc2ccc3ccccc3c12)/c1ccc2ccccc2n1 | > 100 µM (inactive) | > 100 µM | > 100 µM (inactive) | > 100 µM (inactive) | 29.4 µM (inactive) | > 100 µM (inactive) | > 100 µM (inactive) | > 100 µM (inactive) | > 100 µM (inactive) | > 100 µM (inactive) | > 100 µM (inactive) | > 100 µM (inactive) | > 100 µM (inactive) | > 100 µM (inactive) |  | > 100 µM (inactive) | > 100 µM (inactive) | 74.1 µM (inactive) | 62.2 µM (inactive) | > 100 µM (inactive) |
| COC(=O)/C=C(/C=C1/C(C#N)=C(N)N(c2ccc(Cl)cc2)C1(C)/C(=C/C(=O)OC)C(=O)OC)C(=O)OC (configuration not stated) | 27 µM (inactive) | 23.8 µM | > 100 µM (inactive) | 33.4 µM (inactive) |  | 27.6 µM (inactive) | 8.69 µM (inactive) | 45.1 µM (inactive) | 40.6 µM (inactive) | 53 µM (inactive) | > 100 µM (inactive) |  | 60.1 µM (inactive) | 46.1 µM (inactive) | 42.3 µM (inactive) | 81.8 µM (inactive) | > 100 µM (inactive) | > 100 µM (inactive) | > 100 µM (inactive) | 35.8 µM (inactive) |
| BrC1=CC=C2NC=CC3=CC=NC1C32 (configuration not stated) | 6.22 µM (inactive) | 18.9 µM | 25.5 µM (inactive) | 14.9 µM (inactive) |  | 25.6 µM (inactive) |  |  | 2.75 µM (inactive) |  | 27.7 µM (inactive) | 16 µM (inactive) | 34.1 µM (inactive) | 39.5 µM (inactive) | 15.7 µM (inactive) | 22 µM (inactive) | 19.1 µM (inactive) | 15.5 µM (inactive) | 12.6 µM (inactive) | 18.6 µM (inactive) |
| COC(=O)C1=C(O)c2cc(OC)c(OC)cc2C(c2ccc(OC)c(OC)c2)C1 (configuration not stated) | > 100 µM (inactive) | 78.7 µM | > 100 µM (inactive) | 71.6 µM (inactive) |  | > 100 µM (inactive) |  |  | 66.7 µM (inactive) |  | > 100 µM (inactive) | > 100 µM (inactive) | > 100 µM (inactive) | > 100 µM (inactive) | > 100 µM (inactive) | > 100 µM (inactive) | > 100 µM (inactive) | 69.3 µM (inactive) | > 100 µM (inactive) | 51.2 µM (inactive) |
| CC1(C)CC2CC(CC(C)(C)C2=O)C1=O | > 100 µM (inactive) | > 100 µM | > 100 µM (inactive) | > 100 µM (inactive) |  | > 100 µM (inactive) |  |  | > 100 µM (inactive) |  | > 100 µM (inactive) | > 100 µM (inactive) | > 100 µM (inactive) | > 100 µM (inactive) | > 100 µM (inactive) | > 100 µM (inactive) | > 100 µM (inactive) | > 100 µM (inactive) | > 100 µM (inactive) | > 100 µM (inactive) |
| [O-][n+]1ccccc1Sc1nc(Sc2cccc[n+]2[O-])nc(Sc2cccc[n+]2[O-])n1 | 0.198 µM (active) | 1.38 µM | 2.98 µM (inactive) | 1.19 µM (inactive) | 2.08 µM (inactive) | 0.54 µM (active) | 1.38 µM (inactive) |  | 1.88 µM (inactive) | 2.92 µM (inactive) | 1.59 µM (inactive) | 0.444 µM (active) | 1.76 µM (inactive) | 2.34 µM (inactive) | 1.28 µM (inactive) | 1.58 µM (inactive) | 1.7 µM (inactive) | 2.99 µM (inactive) | 2.06 µM (inactive) | 1.81 µM (inactive) |
| O=c1[nH][nH]c(=O)n1Cc1cccc(Cn2c(=O)[nH][nH]c2=O)c1 | > 100 µM (inactive) | > 100 µM |  | > 100 µM (inactive) | > 100 µM (inactive) |  | > 100 µM (inactive) | > 100 µM (inactive) | > 100 µM (inactive) | > 100 µM (inactive) | > 100 µM (inactive) | > 100 µM (inactive) | > 100 µM (inactive) | > 100 µM (inactive) |  | > 100 µM (inactive) | > 100 µM (inactive) | > 100 µM (inactive) | > 100 µM (inactive) | > 100 µM (inactive) |
| CC#C[P+](c1ccccc1)(c1ccccc1)c1ccccc1 | 0.693 µM (active) | 2.66 µM | 2.83 µM (inactive) | 3.25 µM (inactive) |  | 6.95 µM (inactive) |  |  | 2.48 µM (inactive) |  | 6.49 µM (inactive) | 5.25 µM (inactive) | 4.09 µM (inactive) | 4.83 µM (inactive) | 2.16 µM (inactive) | 3.09 µM (inactive) | 8.55 µM (inactive) | 2.09 µM (inactive) | 2.25 µM (inactive) | 1.12 µM (inactive) |
| Cc1cc(C)c2c(-c3ccccc3)cc(=O)[nH]c2c1 | > 100 µM (inactive) | > 100 µM | > 100 µM (inactive) | > 100 µM (inactive) | > 100 µM (inactive) | > 100 µM (inactive) | > 100 µM (inactive) | > 100 µM (inactive) | > 100 µM (inactive) | > 100 µM (inactive) | > 100 µM (inactive) | > 100 µM (inactive) | > 100 µM (inactive) | > 100 µM (inactive) |  | > 100 µM (inactive) | > 100 µM (inactive) | > 100 µM (inactive) |  | > 100 µM (inactive) |
| c1cnn(C23C4C5C6C4C2C6C53)c1 (configuration not stated) | > 100 µM (inactive) | > 100 µM | > 100 µM (inactive) | > 100 µM (inactive) | > 100 µM (inactive) | > 100 µM (inactive) | > 100 µM (inactive) | > 100 µM (inactive) | > 100 µM (inactive) | > 100 µM (inactive) |  |  | > 100 µM (inactive) | > 100 µM (inactive) |  |  | > 100 µM (inactive) | > 100 µM (inactive) | > 100 µM (inactive) | > 100 µM (inactive) |
| Cc1c(-c2ccc(O)cc2)n(CCCCCCNCCOC(=O)NCCCc2ccc(N(CCCl)CCCl)cc2)c2ccc(O)cc12 | 1.67 µM (inactive) | 1.79 µM | 2.54 µM (inactive) | 1.59 µM (inactive) | 1.98 µM (inactive) | 2.07 µM (inactive) | 1.83 µM (inactive) | 1.73 µM (inactive) | 1.52 µM (inactive) |  | 1.9 µM (inactive) |  | 2.24 µM (inactive) | 3.05 µM (inactive) |  | 2.16 µM (inactive) | 15.1 µM (inactive) | 1.52 µM (inactive) | 1.64 µM (inactive) | 2.4 µM (inactive) |
| O=C(O)CSc1nnc(Cc2ccccc2)[nH]1 | > 100 µM (inactive) | > 100 µM | > 100 µM (inactive) | > 100 µM (inactive) |  | > 100 µM (inactive) |  |  | > 100 µM (inactive) |  | > 100 µM (inactive) | > 100 µM (inactive) | > 100 µM (inactive) | > 100 µM (inactive) | > 100 µM (inactive) | > 100 µM (inactive) | > 100 µM (inactive) | > 100 µM (inactive) | > 100 µM (inactive) | > 100 µM (inactive) |
| CC(=O)NC1C(OC(C)C(=O)NC(C(=O)NC(CCC(=O)NCCCNC2c3ccccc3Nc3cccc([N+](=O)[O-])c32)C(N)=O)C(C)C)C(O)C(CO)OC1(C)OCc1ccccc1 (configuration not stated) | 1.02 µM (active) | 0.463 µM | 1.27 µM (inactive) | 0.152 µM (active) | 1.64 µM (inactive) | 1.6 µM (inactive) | 0.54 µM (active) | 0.634 µM (active) | 0.108 µM (active) | 2.02 µM (inactive) | 1.78 µM (inactive) | 0.36 µM (active) | 0.133 µM (active) | 1.54 µM (inactive) |  | 0.946 µM (active) | 3.94 µM (inactive) | 0.998 µM (active) |  | 0.822 µM (active) |
| CCn1c2c(n(CC)c1=S)-c1c(n(CC)c(=S)n1CC)SSSS2 | 1.24 µM (inactive) | 4.49 µM | > 100 µM (inactive) | 11.7 µM (inactive) | 0.308 µM (active) | 17.8 µM (inactive) | 2.18 µM (inactive) | > 10 µM (inactive) | 53.7 µM (inactive) |  | 9.53 µM (inactive) | 1.36 µM (inactive) | 15.2 µM (inactive) | 14.5 µM (inactive) | 3.33 µM (inactive) | 7.23 µM (inactive) | 17.3 µM (inactive) | 21.1 µM (inactive) | 12.2 µM (inactive) | 11.2 µM (inactive) |
